The values that follow come from patent US11376214B2, “Compositions and methods for treatment of ocular diseases” (KIORA PHARMACEUTICALS, INC., priority 2019, dated 2022).

Data set [1] is described as follows: Release of antibiotic from hydrogel or PBS in dialysis chamber. In kind it is physicochemical. How it is done:
For this assessment, a 0.5 ml sample of hydrogel plus drug or PBS plus drug was placed into a medi-dialysis chamber, and the chamber was placed in a beaker containing 100 ml of PBS. The remaining amount of drug in the dialysis chamber was monitored using UV spectroscopy at various time points. […] The release was monitored as described above. […] Another drug release study was performed, with Moxi-FB and Besi-HCl as the antibiotics, a hydrogel with 7.5 mg/ml CMHA-S, and the antibiotics incorporated at 10 mg/ml. For this study, the samples were placed in a dialysis chamber that was then placed in a tube that contained 10 ml of PBS. The dialysis chamber was transferred to a new tube at each time point, and the dialysate was analyzed by UV absorption (rather than the material inside the dialysis chamber), and the released amount of drug was calculated (rather than the amount remaining). In this experimental set-up, drug release from the hydrogel was slower than from PBS (FIGS. 4A and 4B). Despite the poor water solubility of Besi-HCl compared to Moxi-FB, Besi-HCl was still released from the hydrogel.

The conditions of data set [2]: cited from earlier work.
Data set [3] in a line: Refractive index by refractometer. The settings on record: antibiotic 1 mg/ml incorporated in hydrogel (CMHA-S about 7.5 mg/ml). In kind it is physicochemical. How it is done:
(§1) Viscosity, pH, and refractive index (RI) were measured for hydrogels described in Example 2 with and without antibiotic incorporated. […] Viscosity was determined as described in Example 1. RI was measured with a refractometer and pH was measured with a pH meter.

The nature of data set [4]: Rheological testing (parallel plate rheometer): viscosity and shear-thinning. It counts as physicochemical. The settings on record: antibiotic 1 mg/ml incorporated in hydrogel (CMHA-S about 7.5 mg/ml). Here is the method: Thiol-modified carboxymethyl HA (CMHA-S) was synthesized as described in Lawyer et al. and Wendling et al., with a thiol modification of 0.1, 0.2, 0.4, or 0.7 μmol thiol/mg. Hydrogels were created by dissolving CMHA-S in phosphate-buffered saline (PBS; pH 7.4). The CMHA-S was disulfide crosslinked under continuous mixing with the addition of sodium hypochlorite. Rheological testing was performed using a parallel plate format rheometer with a 25 mm-diameter stainless steel geometry. Samples (5-6 ml) of hydrogel were placed in a 35 mm Petri dish, and the geometry was lowered to a gap of 5 mm. To determine viscosity and shear-thinning, the shear rate was varied from 0.1 to 10 Hz. A decreasing viscosity as shear rate increases indicates shear-thinning behavior. Table 1 provides the thiol modification of the CMHA-S, concentration of CMHA-S, and resultant viscosity of the hydrogel (at 2.5 Hz) for 4 hydrogel formulations.
as §1

A further data set concerns Staphylococcus aureus. The data set is described as follows: Zone of inhibition (ZOI) study of dialysate samples. In kind it is cell-based. The settings on record: S. aureus. How it is done: (§2) To verify the efficacy of a drug in the hydrogel, zone of inhibition (ZOI) studies were conducted. […] Samples of the dialysate were collected at 0, 1, 2, 4, and 8 hours. Filter paper disks were soaked in each sample, placed on a bacteria-inoculated plate, and the ZOIs were compared between PBS group and hydrogel group.

The test system of the next data set is Pseudomonas aeruginosa. The description is as above. It counts as cell-based. The settings on record: P. aeruginosa. How it is done:
as §2

Another data set in a line: pH by pH meter. The settings on record: antibiotic 1 mg/ml incorporated in hydrogel (CMHA-S about 7.5 mg/ml). In kind it is physicochemical. How it is done: as §1
Where [5] appears, read: released from PBS (1 mg/ml), dialysate at 4 hrs.
[6] abbreviates: released from PBS (1 mg/ml), dialysate at 8 hrs.
[7] abbreviates: released from hydrogel (CMHA-S 7.5 mg/ml, drug 1 mg/ml), dialysate at 8 hrs.

Where a name gives a salt, the structure may show the parent alone. Read-outs that look alike come from different tables or passages of the source. Some results are limits rather than exact numbers.

Take `N[C@@H]1CCCCN(c2c(F)cc3c(=O)c(C(=O)O)cn(C4CC4)c3c2Cl)C1` [Besi-HCl, besifloxacin hydrochloride]: in data set [1] (antibiotic 10 mg/ml in hydrogel with 7.5 mg/ml CMHA-S, dialysis chamber in 10 ml PBS, new tube at each time point, dialysate UV), the “drug release from hydrogel compared with PBS” value is listed as “slower”. For the same compound, the solubility in water result in data set [2] was “about 1 mg/ml”.
In the case of `COc1c(N2C[C@@H]3CCCN[C@@H]3C2)c(F)cc2c(=O)c(C(=O)O)cn(C3CC3)c12` [Moxi-FB, moxifloxacin], the solubility in water result in data set [2] is “about 1 mg/ml”.
On to `COc1c(N2C[C@@H]3CCCN[C@@H]3C2)c(F)cc2c(=O)c(C(=O)O)cn(C3CC3)c12` [Moxi-HCl, moxifloxacin hydrochloride], for which, in data set [3] (hydrochloride), the Refractive index is reported as 1.3355. For the same compound, the “Viscosity at 2.5 Hz” value in data set [4] (hydrochloride) was determined as 1.6 Pa · s. In addition, the “drug release from hydrogel compared with PBS” value in data set [1] (drug 1 mg/ml in hydrogel #4 (CMHA-S 4.0 mg/ml)) is on record as “slightly slower”; in data set [1] (drug 1 mg/ml in hydrogel (CMHA-S about 7.5 mg/ml), medi-dialysis chamber in 100 ml PBS), “only slightly slowed down”. Also, the “time within which release was complete” value in data set [1] (drug 1 mg/ml in hydrogel #4 (CMHA-S 4.0 mg/ml), medi-dialysis chamber in 100 ml PBS) was at most 4 h. In data set [2] (hydrochloride), the solubility in water is about 20 mg/mL. For the same compound, the ZOI with Staphylococcus aureus (released from PBS (1 mg/ml), dialysate at 2 hrs) turned out to be 28.3 ± 1.0 mm; in the data set on Staphylococcus aureus (setting [5]), 26.5 ± 2.5 mm; with Staphylococcus aureus (setting [6]), 23.5 ± 2.8 mm; in the data set on Staphylococcus aureus (setting [7]) it was 27.2 ± 1.3 mm; with Pseudomonas aeruginosa (setting [5]), 24.7 ± 2.8 mm; in the data set with Pseudomonas aeruginosa (setting [6]), 20.5 ± 1.8 mm. For the same compound, the ZOI with Pseudomonas aeruginosa (released from hydrogel (CMHA-S 7.5 mg/ml, drug 1 mg/ml), dialysate at 1 hrs) turned out to be 28.7 ± 0.3 mm; with Pseudomonas aeruginosa (released from hydrogel (CMHA-S 7.5 mg/ml, drug 1 mg/ml), dialysate at 4 hrs), 26.8 ± 1.4 mm; with Pseudomonas aeruginosa (setting [7]), 26.5 ± 3.2 mm. The same compound showed a pH in “pH by pH meter” (hydrochloride) of 7.0.
As to `NC[C@H]1O[C@H](O[C@H]2[C@H](O)[C@@H](O[C@H]3O[C@H](CO)[C@@H](O)[C@H](N)[C@H]3O)[C@H](N)C[C@@H]2N)[C@H](N)C[C@@H]1O` [Tobramycin, tobramycin], the Refractive index in data set [3] was found to be 1.3355. In data set [4], the “Viscosity at 2.5 Hz” value was determined as 1.4 Pa · s. For the same compound, the solubility in water in data set [2] was over 50 mg/mL. In “pH by pH meter”, this compound had a pH of 8.6.
